Results reported in patent US20050147565A1, “Pharmaceutical compositions for the treatment of asthma” (Schering Corporation, priority 2001, published 2005).

How the values were obtained:
[1] = Andersen Cascade Impactor particle size distribution of the emitted dose of the metered dose inhaler; type: physicochemical; settings: Formoterol/Mometasone 6/50 μg/actuation inhaler
From the text: The formulations of the present invention were further analyzed using an Andersen Cascade Impactor as described in Examples 6 and 7. The Andersen Cascade Impactor is widely used for measuring the particle size distribution of airborne particles and more specifically pharmaceutical aerosols. The eight stage Andersen Impactor separates the sample into nine size intervals when used with a backup filter after the last impaction stage. In FIGS. 1 to 4, this corresponds Stage 0 of particles having a particle size less than 10 μm to a particle size of 0.65-0.43 μm in stage 8, with the final stage corresponding to the filter for particles less than 0.43 μm. The measurement of the particle size at the “throat” in the figures corresponds to the entry port of the Impactor. The fine particle fraction is defined as the percentage of particles having a particle size of less than 4.7 μm. The fine particle dose is defined as the amount in μg per dose that is less than 4.7 μm in size in each actuation. The μg/shot is the total amount of emitted drug product that exits the metered dose inhaler upon actuation. The determination of the particle size distribution of the emitted dose of the formulation using an Andersen Cascade Impactor is known to one of skill in the art.
A formulation containing 6 μg of formoterol fumarate and 50 μg of mometasone furoate using HFA 227 in the absence of a bulking agent or carrier in a metered dose inhaler was analyzed by an Andersen Cascade Impactor to 5 analyze the amount of active drug ingredients and the particle size of the actives exiting the inhaler over time. […] The metered dose for both actives over time was also within acceptable limits (62.9 to 63.3 for mometasone and 6.6 to 6.5 for formoterol at the 4 month point). […]
A formulation containing 6 μg of formoterol fumarate and 50 μg of mometasone furoate using HFA 134a with lactose as a bulking agent in a metered dose inhaler was analyzed by an Andersen Cascade Impactor to analyze the amount of active drug ingredients and the particle size of the actives exiting the inhaler over time. […] Additionally, the metered dose actually delivered was also maintained over time within acceptable limits (64.1 to 63.7 for mometasone, 6.9 to 6.6 for formoterol). The fine particle fraction for both mometasone and formoterol was maintained within acceptable limits.

[2] = Drug Content Uniformity (DCU) through the life of a 120 dose MDI; type: physicochemical; settings: Formoterol/Mometasone 6/50 μg/actuation inhaler
Method: The Drug Content Uniformity (DCU) of the inhaler was measured throughout the life of a 120 dose MDI to ascertain whether there was a consistency of dose of the active ingredients throughout the life of the product. Five canisters of each formulation (HFA 227 or HFA 134a) were analyzed and each canister delivered 120 actuations of medication and the amount of actives exiting the inhaler per actuation was measured at varying actuations, e.g., numbers 11, 12, 13, 14, (beginning) 59, 60, 61, 62 (middle) and 117, 118, 119 and 120 (end). Means were determined for the beginning, middle and end actuations, and an overall mean was determined and set forth in Examples 9 and 10 above.

[3] = cited from earlier work
[4] = Percent change in fine particle size after temperature cycling; type: physicochemical
From the text: A finer particle size distribution of the mometasone furoate improves the fine particle fraction of the formulation exiting the inhaler upon actuation of the metered dose inhaler. […] The aerodynamic particle size distribution is well within the range of a typical efficacious topical lung medication, e.g., greater than 50% of the particles are less than 4.7 microns.

[5] = cited from earlier work; remark: listed apart in the source
[6] = HFA 134a, low bulking agent (lactose), 1 Month, 4 C./40 C.
[7] = HFA 134a, low bulking agent (lactose), 1 Month, 40 C./75%
[8] = HFA 134a, low bulking agent (lactose), 3 Month, 4 C./40 C.
[9] = HFA 134a, low bulking agent (lactose), 4 Month, 25 C./60%
[10] = HFA 134a, low bulking agent (lactose), 4 Month, 40 C./75%
[11] = HFA 134a, low bulking agent (lactose), Initial
[12] = HFA 227, without bulking agent, 1 Month, 4 C./40 C.
[13] = HFA 227, without bulking agent, 1 Month, 40 C./75%
[14] = HFA 227, without bulking agent, 3 Month, 4 C./40 C.
[15] = HFA 227, without bulking agent, 4 Month, 25 C./60%
[16] = HFA 227, without bulking agent, 4 Month, 40 C./75%
[17] = HFA 227, without bulking agent, Initial
[18] = HFA 134a, low bulking agent, 1 Month, 4 C./40 C.
[19] = HFA 134a, low bulking agent, 1 Month, 40 C./75%
[20] = HFA 134a, low bulking agent, Initial
[21] = HFA 227, no bulking agent, 1 Month, 4 C./40 C.
[22] = HFA 227, no bulking agent, 1 Month, 40 C./75%
[23] = HFA 227, no bulking agent, Initial

In the case of `COc1ccc(CC(C)NCC(O)c2ccc(O)c(NC=O)c2)cc1.COc1ccc(CC(C)NCC(O)c2ccc(O)c(NC=O)c2)cc1.O.O.O=C(O)/C=C/C(=O)O` (racemic) [Formoterol Fumarate, (±)2-hydroxy-5-[(1RS)-1-hydroxy-2-[[(1RS)-2-(4-methoxyphenyly-1methylethyl]-amino]ethyl]formanilide fumarate dihydrate], the “Fine Particle Dose (μg/shot)” value [1, 6] is reported as 2.0 μg/shot, the “Fine Particle Fraction %” value [1, 6] is reported as 38.0% and the “MMAD (microns)” value [1, 6] is reported as 3.1 microns. The “Fine Particle Dose (μg/shot)” value [1, 7] was 2.1 μg/shot, the “Fine Particle Fraction %” value [1, 7] was 41.3% and the “MMAD (microns)” value [1, 7] was 2.9 microns. For the same molecule, the “Fine Particle Dose (μg/shot)” value [1, 8] was 2.2 μg/shot, the “Fine Particle Fraction %” value [1, 8] was 40.2% and the “MMAD (microns)” value [1, 8] was 3.2 microns. For the same molecule, the “Fine Particle Dose (μg/shot)” value [1, 9] was 2.3 μg/shot, the “Fine Particle Fraction %” value [1, 9] was 43.6% and the “MMAD (microns)” value [1, 9] was 3.0 microns. The “Fine Particle Dose (μg/shot)” value [1, 10] was 2.1 μg/shot, the “Fine Particle Fraction %” value [1, 10] was 40.3% and the “MMAD (microns)” value [1, 10] was 3.1 microns. The “Fine Particle Dose (μg/shot)” value [1, 11] was 2.4 μg/shot, the “Fine Particle Fraction %” value [1, 11] was 42.5% and the “MMAD (microns)” value [1, 11] was 2.9 microns. The “Fine Particle Dose (μg/shot)” value [1, 12] was 2.2 μg/shot, the “Fine Particle Fraction %” value [1, 12] was 39.0% and the “MMAD (microns)” value [1, 12] was 3.3 microns. For the same molecule, the “μg/shot (metered dose)” value [1, 12] was 6.3 μg/shot, the “Fine Particle Dose (μg/shot)” value [1, 13] was 2.4 μg/shot and the “Fine Particle Fraction %” value [1, 13] was 41.1%. For the same molecule, the “MMAD (microns)” value [1, 13] was 3.2 microns, the “μg/shot (metered dose)” value [1, 13] was 6.6 μg/shot and the “Fine Particle Dose (μg/shot)” value [1, 14] was 1.9 μg/shot. For the same molecule, the “Fine Particle Fraction %” value [1, 14] was 35.2%, the “MMAD (microns)” value [1, 14] was 3.3 microns and the “μg/shot (metered dose)” value [1, 14] was 6.3 μg/shot. The “Fine Particle Dose (μg/shot)” value [1, 15] was 2.6 μg/shot, the “Fine Particle Fraction %” value [1, 15] was 47.3% and the “MMAD (microns)” value [1, 15] was 3.2 microns. For the same molecule, the “μg/shot (metered dose)” value [1, 15] was 6.5 μg/shot, the “Fine Particle Dose (μg/shot)” value [1, 16] was 2.2 μg/shot and the “Fine Particle Fraction %” value [1, 16] was 40.1%. The “MMAD (microns)” value [1, 16] was 3.4 microns, the “μg/shot (metered dose)” value [1, 16] was 6.5 μg/shot and the “Fine Particle Dose (μg/shot)” value [1, 17] was 2.6 μg/shot. The “Fine Particle Fraction %” value [1, 17] was 46.3%, the “MMAD (microns)” value [1, 17] was 3.2 microns and the “μg/shot (metered dose)” value [1, 17] was 6.6 μg/shot. For the same molecule, the “Overall Mean μg/shot” value [2, 18] was 5.6 μg/shot, the “Overall Mean μg/shot” value [2, 19] was 6.0 μg/shot and the “Overall Mean μg/shot” value [2, 20] was 6.2 μg/shot. For the same molecule, the “Overall Mean μg/shot” value [2, 21] was 5.5 μg/shot, the “Overall Mean μg/shot” value [2, 22] was 5.7 μg/shot and the “Overall Mean μg/shot” value [2, 23] was 5.7 μg/shot. For the same molecule, the solubility in acetone [3] was “practically insoluble”, the “solubility in diethyl ether” value ([3]; diethyl ether) was “practically insoluble” and the solubility in ethanol [3] was “sparingly soluble”. The “solubility in ethyl acetate” value ([3]; ethyl acetate) was “practically insoluble”, the “solubility in glacial acetic acid” value ([3]; glacial acetic acid) was “freely soluble” and the solubility in isopropanol [3] was “sparingly soluble”. The solubility in methanol [3] was “soluble” and the solubility in water [3] was “slightly soluble”.
With `C[C@@H]1C[C@H]2[C@@H]3CCC4=CC(=O)C=C[C@]4(C)[C@@]3(Cl)[C@@H](O)C[C@]2(C)[C@@]1(OC(=O)c1ccco1)C(=O)CCl` [Mometasone Furoate, 9,21-Dichloro-11(beta), 17-dihydroxy-16(alpha)-methylpregna-1,4-diene-3,20-dione 17-(2 furoate)] the “percent change in fine particle size” value ([4]; grade of mometasone used in Example 6 (coarse), two weeks of temperature cycling at −10° C. and 40° C.) was “about 50%”, the “percent change in fine particle size” value ([4]; similar mdi using mometasone furoate alone, finer grade of mometasone furoate, same cycling conditions (two weeks, −10° C. and 40° C.)) was at most 15% and the “Fine Particle Dose (μg/shot)” value [1, 6] was 10.6 μg/shot. For the same molecule, the “Fine Particle Fraction %” value [1, 6] was 20.1%, the “MMAD (microns)” value [1, 6] was 4.3 microns and the “μg/shot (metered dose)” value [1, 6] was 65.0 μg/shot. For the same molecule, the “Fine Particle Dose (μg/shot)” value [1, 7] was 10.1 μg/shot, the “Fine Particle Fraction %” value [1, 7] was 20.1% and the “MMAD (microns)” value [1, 7] was 4.3 microns. For the same molecule, the “μg/shot (metered dose)” value [1, 7] was 62.2 μg/shot, the “Fine Particle Dose (μg/shot)” value [1, 8] was 10.0 μg/shot and the “Fine Particle Fraction %” value [1, 8] was 20.0%. The “MMAD (microns)” value [1, 8] was 4.6 microns, the “μg/shot (metered dose)” value [1, 8] was 62.6 μg/shot and the “Fine Particle Dose (μg/shot)” value [1, 9] was 11.4 μg/shot. The “Fine Particle Fraction %” value [1, 9] was 22.6%, the “MMAD (microns)” value [1, 9] was 4.3 microns and the “μg/shot (metered dose)” value [1, 9] was 62.1 μg/shot. For the same molecule, the “Fine Particle Dose (μg/shot)” value [1, 10] was 8.8 μg/shot, the “Fine Particle Fraction %” value [1, 10] was 17.7% and the “MMAD (microns)” value [1, 10] was 4.5 microns. The “μg/shot (metered dose)” value [1, 10] was 63.7 μg/shot, the “Fine Particle Dose (μg/shot)” value [1, 11] was 13.6 μg/shot and the “Fine Particle Fraction %” value [1, 11] was 25.7%. The “MMAD (microns)” value [1, 11] was 3.9 microns, the “μg/shot (metered dose)” value [1, 11] was 64.1 μg/shot and the “Fine Particle Dose (μg/shot)” value [1, 12] was 9.2 μg/shot. The “Fine Particle Fraction %” value [1, 12] was 16.4%, the “MMAD (microns)” value [1, 12] was 5.0 microns and the “μg/shot (metered dose)” value [1, 12] was 62.6 μg/shot. For the same molecule, the “Fine Particle Dose (μg/shot)” value [1, 13] was 13.9 μg/shot, the “Fine Particle Fraction %” value [1, 13] was 25.3% and the “MMAD (microns)” value [1, 13] was 4.1 microns. The “μg/shot (metered dose)” value [1, 13] was 62.4 μg/shot, the “Fine Particle Dose (μg/shot)” value [1, 14] was 5.3 μg/shot and the “Fine Particle Fraction %” value [1, 14] was 9.8%. For the same molecule, the “MMAD (microns)” value [1, 14] was 6.3 microns, the “μg/shot (metered dose)” value [1, 14] was 60.5 μg/shot and the “Fine Particle Dose (μg/shot)” value [1, 15] was 16.1 μg/shot. For the same molecule, the “Fine Particle Fraction %” value [1, 15] was 30.4%, the “MMAD (microns)” value [1, 15] was 4.2 microns and the “μg/shot (metered dose)” value [1, 15] was 61.5 μg/shot. For the same molecule, the “Fine Particle Dose (μg/shot)” value [1, 16] was 10.4 μg/shot, the “Fine Particle Fraction %” value [1, 16] was 18.6% and the “MMAD (microns)” value [1, 16] was 4.6 microns. For the same molecule, the “μg/shot (metered dose)” value [1, 16] was 63.3 μg/shot, the “Fine Particle Dose (μg/shot)” value [1, 17] was 19.7 μg/shot and the “Fine Particle Fraction %” value [1, 17] was 36.5%. For the same molecule, the “MMAD (microns)” value [1, 17] was 3.7 microns, the “μg/shot (metered dose)” value [1, 17] was 62.9 μg/shot and the “Overall Mean μg/shot” value [2, 18] was 55.7 μg/shot. The “Overall Mean μg/shot” value [2, 19] was 57.0 μg/shot, the “Overall Mean μg/shot” value [2, 20] was 59.1 μg/shot and the “Overall Mean μg/shot” value [2, 21] was 55.6 μg/shot. For the same molecule, the “Overall Mean μg/shot” value [2, 22] was 54.9 μg/shot, the “Overall Mean μg/shot” value [2, 23] was 54.7 μg/shot and the solubility in acetone [3] was “soluble”. For the same molecule, the solubility in chloroform ([3]; chloroform) was “soluble”, the solubility in ethanol [3] was “slightly soluble” and the solubility in isopropanol [3] was “slightly soluble”. The solubility in methanol [3] was “slightly soluble”, the solubility in tetrahydrofuran ([3]; tetrahydrofuran) was “freely soluble” and the solubility in water [3] was “practically insoluble”. The “partition coefficient between octanol and water” value [5] was “greater than 5000”.
